# Source: patent US4889860A (Nova Pharmaceutical Corporation, priority 1987, dated 1989)
# Assays:
# [1] = food intake in 24 hr food-deprived rats; assay type: in vivo, rat; settings: for Food Intake in Grams: Table 3, 24 hr; for Cumulative Food Intake in Grams: Table 4
# Protocol: (§1) Rats were given water and powdered food ad lib for 8 days until food intake had stabilized, and body weight and food and water intakes were recorded at the same time every day. Animals were assigned to treatment groups matched on the basis of their 24 hr food consumption on the last baseline day, and rats were food deprived for 24 hr immediately before injection of the test compound. […] The compound of Example XII was injected S.C. at doses of 1.15, 2.31, 11.55 and 23.09 μmol/kg, in a volume of 4 ml/kg of 0.3% acetic acid. Controls were injected with the vehicle solutions in the appropriate volumes. Food and water intakes were measured at 1, 3 and 24 hr after treatment. Data for each measure and time point were analyzed by one-way analysis of variance (ANOVA), and post-hoc comparisons were performed using Dunnett's test in order to compare the control mean to each of the treatment means.
# (§2) Rats were given water and powdered food for 8 days, and following this,
# (§3) Testing was performed as described above, and baseline measurements were recorded for 7 days. […] The compound of Example XII was injected at doses of 11.55, 23.09, 46.19 and 92.38 μmol/kg by suspension in a solution of 1:1 DMSO:water in a volume of 3 ml/kg. Food and water intakes were recorded at 1, 2, 4 and 6 h following treatment.
# See Table 3 for experimental details, except that baseline measures were […]
# [2] = water intake in 24 hr food-deprived rats; assay type: in vivo, rat; settings: for Water Intake: Table 3, 24 hr; for Cumulative Water Intake: Table 5
# Protocol: as §1, §2, §3
# See Table 3 for experimental details, except that baseline measurements
# [3] = test system: oxymorphonazine (OMZ)-induced analgesia; experiment: antagonism of oxymorphonazine (OMZ)-induced analgesia (tail flick) in rats; assay type: in vivo, rat
# Protocol: The compound of Example XII was evaluated for its potency and duration in the antagonism of oxymorphonazine (OMZ)-induced analgesia. […] Data represent the mean SEM of 4-5 animals per group.
# (Cowan A. Trendsin Pharmacology Science, 7:69-72, 1986) With this test the intracerebroventricular administration of bombesin produces a characteristic scratching response.
# [4] = target: T1, kappa-type opioid receptor (Cavia porcellus, UniProt P41144); experiment: inhibition of specific [^3 H] EKC binding to guinea pig cerebellum membrane
# T1 construct: using guiniea pig cerebellum membrane; from tissue; host or cells: guinea pig cerebellum membranes
# mu-type opioid receptor = target: T2, mu-type opioid receptor (Rattus norvegicus, UniProt P33535); experiment: inhibition of specific [^3 H] DAGO binding to rat forebrain membranes
# T2 construct: using rat forebrain membranes; from tissue; host or cells: rat forebrain membranes
# [5] = S.C., dose tested (mg/kg): Naltrexone 0.5, Nalmefene 1.0, XI 10.0, XII 2.5, XIII 0.5, XIV 5.0
# T2 sequence (P33535 whole entry): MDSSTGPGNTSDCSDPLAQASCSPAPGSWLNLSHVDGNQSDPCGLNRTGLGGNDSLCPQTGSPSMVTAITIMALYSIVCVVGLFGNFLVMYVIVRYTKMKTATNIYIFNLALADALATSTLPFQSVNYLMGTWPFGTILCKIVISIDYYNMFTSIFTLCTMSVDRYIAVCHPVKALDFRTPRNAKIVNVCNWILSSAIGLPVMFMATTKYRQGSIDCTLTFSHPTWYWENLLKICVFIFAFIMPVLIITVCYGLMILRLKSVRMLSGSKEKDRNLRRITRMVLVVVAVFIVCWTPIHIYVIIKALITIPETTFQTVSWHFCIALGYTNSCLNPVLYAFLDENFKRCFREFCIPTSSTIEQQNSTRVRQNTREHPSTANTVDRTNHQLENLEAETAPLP
# T1 sequence (P41144 whole entry): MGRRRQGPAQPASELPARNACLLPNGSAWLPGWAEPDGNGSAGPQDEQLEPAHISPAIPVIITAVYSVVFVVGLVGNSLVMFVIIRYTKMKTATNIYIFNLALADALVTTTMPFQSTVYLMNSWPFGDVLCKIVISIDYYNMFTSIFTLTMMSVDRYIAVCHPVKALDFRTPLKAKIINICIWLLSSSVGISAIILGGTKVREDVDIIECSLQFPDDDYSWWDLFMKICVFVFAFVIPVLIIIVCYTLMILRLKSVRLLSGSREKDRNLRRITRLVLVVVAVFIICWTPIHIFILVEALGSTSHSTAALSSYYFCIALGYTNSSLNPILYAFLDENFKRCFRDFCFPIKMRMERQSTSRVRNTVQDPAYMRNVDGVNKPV
compound,measurement,setting,value
"Oc1ccc2c3c1O[C@H]1C(=NOc4ccccc4)CC[C@@]4(O)[C@@H](C2)N(CC2CC2)CC[C@]314 [Example XII, 6-Phenyloximino-17-cyclopropylmethyl-4,5 α-epoxy-3, 14-dihydroxymorphinan]",Food Intake in Grams,[1]; S.C. 1.15 μmol/kg,33.3 ± 1.6 Grams
same,Food Intake in Grams,[1]; S.C. 2.31 μmol/kg,31.0 ± 2.0 Grams
same,Food Intake in Grams,[1]; S.C. 11.55 μmol/kg,41.7 ± 7.4 Grams
same,Food Intake in Grams,[1]; S.C. 23.09 μmol/kg,37.6 ± 5.6 Grams
same,Cumulative Food Intake in Grams,"[1]; S.C. 11.55 μmol/kg, 0-1 Hr",2.0 ± 1.0 Grams
same,Cumulative Food Intake in Grams,"[1]; S.C. 11.55 μmol/kg, 0-2 Hr",2.0 ± 1.0 Grams
same,Cumulative Food Intake in Grams,"[1]; S.C. 11.55 μmol/kg, 0-4 Hr",2.8 ± 0.9 Grams
same,Cumulative Food Intake in Grams,"[1]; S.C. 11.55 μmol/kg, 0-6 Hr",3.6 ± 1.3 Grams
same,Cumulative Food Intake in Grams,"[1]; S.C. 23.09 μmol/kg, 0-1 Hr",2.0 ± 0.7 Grams
same,Cumulative Food Intake in Grams,"[1]; S.C. 23.09 μmol/kg, 0-2 Hr",2.4 ± 0.8 Grams
same,Cumulative Food Intake in Grams,"[1]; S.C. 23.09 μmol/kg, 0-4 Hr",3.6 ± 1.5 Grams
same,Cumulative Food Intake in Grams,"[1]; S.C. 23.09 μmol/kg, 0-6 Hr",3.6 ± 1.5 Grams
same,Cumulative Food Intake in Grams,"[1]; S.C. 46.19 μmol/kg, 0-1 Hr",2.8 ± 0.6 Grams
same,Cumulative Food Intake in Grams,"[1]; S.C. 46.19 μmol/kg, 0-2 Hr",2.8 ± 0.6 Grams
same,Cumulative Food Intake in Grams,"[1]; S.C. 46.19 μmol/kg, 0-4 Hr",3.2 ± 0.6 Grams
same,Cumulative Food Intake in Grams,"[1]; S.C. 46.19 μmol/kg, 0-6 Hr",3.6 ± 0.8 Grams
same,Cumulative Food Intake in Grams,"[1]; S.C. 92.38 μmol/kg, 0-1 Hr",3.2 ± 0.6 Grams
same,Cumulative Food Intake in Grams,"[1]; S.C. 92.38 μmol/kg, 0-2 Hr",3.2 ± 0.6 Grams
same,Cumulative Food Intake in Grams,"[1]; S.C. 92.38 μmol/kg, 0-4 Hr",4.0 ± 0.7 Grams
same,Cumulative Food Intake in Grams,"[1]; S.C. 92.38 μmol/kg, 0-6 Hr",4.8 ± 1.1 Grams
same,Water Intake,[2]; S.C. 1.15 μmol/kg,68.3 ± 8.8 mL
same,Water Intake,[2]; S.C. 2.31 μmol/kg,65.0 ± 6.2 mL
same,Water Intake,[2]; S.C. 11.55 μmol/kg,60.3 ± 2.1 mL
same,Water Intake,[2]; S.C. 23.09 μmol/kg,62.8 ± 3.6 mL
same,Cumulative Water Intake,"[2]; S.C. 11.55 μmol/kg, 0-1 Hr",4.8 ± 1.1 mL
same,Cumulative Water Intake,"[2]; S.C. 11.55 μmol/kg, 0-2 Hr",8.0 ± 1.2 mL
same,Cumulative Water Intake,"[2]; S.C. 11.55 μmol/kg, 0-4 Hr",15.6 ± 2.5 mL
same,Cumulative Water Intake,"[2]; S.C. 11.55 μmol/kg, 0-6 Hr",22.0 ± 1.6 mL
same,Cumulative Water Intake,"[2]; S.C. 23.09 μmol/kg, 0-1 Hr",4.0 ± 1.0 mL
same,Cumulative Water Intake,"[2]; S.C. 23.09 μmol/kg, 0-2 Hr",7.2 ± 0.6 mL
same,Cumulative Water Intake,"[2]; S.C. 23.09 μmol/kg, 0-4 Hr",13.2 ± 2.3 mL
same,Cumulative Water Intake,"[2]; S.C. 23.09 μmol/kg, 0-6 Hr",19.6 ± 2.2 mL
same,Cumulative Water Intake,"[2]; S.C. 46.19 μmol/kg, 0-1 Hr",5.2 ± 0.9 mL
same,Cumulative Water Intake,"[2]; S.C. 46.19 μmol/kg, 0-2 Hr",8.0 ± 1.6 mL
same,Cumulative Water Intake,"[2]; S.C. 46.19 μmol/kg, 0-4 Hr",15.2 ± 1.5 mL
same,Cumulative Water Intake,"[2]; S.C. 46.19 μmol/kg, 0-6 Hr",20.8 ± 2.9 mL
same,Cumulative Water Intake,"[2]; S.C. 92.38 μmol/kg, 0-1 Hr",4.0 ± 0.7 mL
same,Cumulative Water Intake,"[2]; S.C. 92.38 μmol/kg, 0-2 Hr",7.6 ± 0.8 mL
same,Cumulative Water Intake,"[2]; S.C. 92.38 μmol/kg, 0-4 Hr",15.2 ± 1.8 mL
same,Cumulative Water Intake,"[2]; S.C. 92.38 μmol/kg, 0-6 Hr",21.2 ± 2.1 mL
same,"antagonism of OMZ-induced analgesia, PO","[3]; PO, 42.64 μmol/kg, 0.5 hours",50%
same,ED50,"[3]; Rattus norvegicus, sc, Table 8, S.C., read-out: ED 50, oxymorphonazine antagonism",0.34 mg/kg
same,ED100,"[3]; Rattus norvegicus, sc, Table 8, S.C., read-out: ED 100, oxymorphonazine antagonism",3.1 mg/kg
same,Percent Antagonism at 1 Hr,[3]; [5],90%
same,Percent Antagonism at 1.5 Hr,[3]; [5],92%
same,Percent Antagonism at 2 Hr,[3]; [5],91%
same,Percent Antagonism at 3 Hr,[3]; [5],77%
same,Percent Antagonism at 4 Hr,[3]; [5],91%
same,Percent Antagonism at 6 Hr,[3]; [5],92%
same,Percent Antagonism at 8 Hr,[3]; [5],80%
same,Ki,[4],3.47 nM
same,Ki,"mu-type opioid receptor; (Ki) nM, μ receptor (Rat Forebrain), Table 6, [^3 H] DAGO, mean of three experiments",0.3 nM
same,Ki,"mu-type opioid receptor; Ki, inhibition of specific [^3 H] DAGO binding, Tables 1 and 2, rat brain membranes, MEAN±S.E.M.",0.21 ± 0.08 nM
